Experimental data from ChEMBL document CHEMBL1130600, “Tropane-based amino acids for peptide structure-function studies: inhibitors of platelet aggregation” (Bioorg Med Chem Lett, 1998).

Organism: Homo sapiens
Experiment: Compound was tested for its ability to inhibit the thrombin-induced platelet aggregation in washed human platelets
Format: functional

| SMILES | IC50 [µM] |
| --- | --- |
| NC(N)=NCCCC(N)C(=O)N1C2CCC(C(=O)NC(CC(=O)O)C(=O)NC(CO)C(=O)O)C1CC2 (stereo unspecified) | 23 |
| NC(N)=NCCCC(N)C(=O)N1C2CC=C(C(=O)NC(CC(=O)O)C(=O)NC(CO)C(=O)O)C1CC2 (stereo unspecified) | 270 |
| CC(=O)NC(CCCCN)C(=O)N1C2CCC1C(C(=O)NCCC(=O)O)C2 (stereo unspecified) | > 500 |
| CC(=O)N[C@H](CCCCN)C(=O)N1C2CCC1C(C(=O)NCCC(=O)O)C2 (stereo partly specified) | > 500 |
| NC(N)=NCCCC(N)C(=O)N1C2CCC1C(C(=O)NC(CC(=O)O)C(=O)NC(CO)C(=O)O)C2 (stereo unspecified) | 402 |

Now from value to compound:

| IC50 [µM] | SMILES |
| --- | --- |
| 60 | CC(=O)NC(CCCCN)C(=O)N1CCCC(C(=O)NCCC(=O)O)C1 (stereo unspecified) |
| 160 | CC(=O)N[C@H](CCCCN)C(=O)N1C2CC=C(C(=O)NCCC(=O)O)C1CC2 (stereo partly specified) |
| > 500 | CC(=O)NC(CCCCN)C(=O)N1C2CC=C(C(=O)NCCC(=O)O)C1CC2 (stereo unspecified) |
| 370 | CC(=O)NC(CCCCN)C(=O)N1C2CCC(C(=O)NCCC(=O)O)C1CC2 (stereo unspecified) |
| 20 | CC(=O)N[C@H](CCCCN)C(=O)N1CCCC(C(=O)NCCC(=O)O)C1 (stereo partly specified) |
| 30 | CC(=O)N[C@H](CCCCN)C(=O)N1C2CCC(C(=O)NCCC(=O)O)C1CC2 (stereo partly specified) |
